Reference: patent US12678512B2, “Anti-EGFR antibody-drug conjugate with a cyclic dinucleotide derivative” (DAIICHI SANKYO COMPANY, LIMITED, priority 2020, dated 2026)

Key:
[1] = molecular target: T1, human HAQ mutant (Hu-HAQ) STING C-terminal binding domain protein (Homo sapiens, UniProt Q86WV6, G230A/H232R/R293Q); test: Protein thermal shift assay, STING binding; settings: test compound final concentration 0.5 mM
T1 construct: made in house; host or cells: E. coli Rosetta 2 (DE3), co-expressed with BirA
Procedure: (§1) Each expression strain was added to TB broth containing 100 μg/mL ampicillin, 50 μg/mL streptomycin, and 30 μg/mL kanamycin, and cultured at 37° C. The expression was then induced with 100 μM IPTG, and the cells were further cultured at 16° C.
(§2) The culture broth was centrifuged, and the obtained bacteria were suspended in 50 mM HEPES pH8.0, 500 mM NaCl, 20 mM imidazole, 1 mM DTT, 5% (w/v) glycerol, and cOmplete EDTA free, and then frozen and thawed. After the addition of lysozyme and DNase I, the proteins were extracted by sonication, and the supernatant was collected by centrifugation. The resulting supernatant was purified through a HisTrap FF column (GE Healthcare) using an AKTAexpress chromatography system (GE Healthcare, IL, US), made to pass through a Superdex200 16/60 column (GE Healthcare), and eluted with a buffer (20 mM HEPES pH 7.5, 120 mM NaCl, 20% glycerol, 0.8 mM DTT). […] The protein concentration was measured using a Nanodrop 2000 (Thermo Fisher Scientific, MA, US), and each protein was frozen and stored at −80° C. until use.
(§3) The binding of a compound to each STING C-terminal binding domain protein was determined by the protein thermal shift assay, which uses the increase in the thermal denaturation temperature of the protein as an indicator.
(§4) Specifically, an assay buffer (20 mM Tris-HCl pH7.5, 120 mM NaCl) was applied to wells of a 384-well real-time PCR plate. Next, 3 μL of each test compound (final concentration 0.5 mM), 3 μL of SYPRO Orange Protein Gel Stain (Thermo Fisher Scientific) (final concentration: 20× concentration), and 6 μL of the STING protein were mixed in each well while using a plate shaker. A real-time PCR system (Thermo Fisher Scientific) was used to increase the temperature from 25° C. to 95° C. at a rate of 0.03° C. per second, and the thermal denaturation temperature of the protein was measured using the fluorescence emitted by SYPRO Orange as an indicator. The measured values were analyzed using Protein Thermal Shift software (Thermo Fisher Scientific) to determine Tm (the midpoint of the unfolding transition) (° C.) as the temperature at which the rate of increase in fluorescence intensity reached its maximum value. The shift of Tm by the test compound was calculated as ΔTm (° C.) by subtracting, from the Tm value of each compound, the Tm value of the well without the compound.

[2] = molecular target: T2, human REF mutant (Hu-REF) STING C-terminal binding domain protein (Homo sapiens, UniProt Q86WV6); test: Protein thermal shift assay, STING binding; settings: test compound final concentration 0.5 mM
T2 construct: made in house; host or cells: E. coli Rosetta 2 (DE3), co-expressed with BirA
Procedure: as §1, §2, §3, §4

[3] = molecular target: T3, human wild-type (Hu-WT) STING C-terminal binding domain protein (Homo sapiens, UniProt Q86WV6, H232R); test: Protein thermal shift assay, STING binding; settings: test compound final concentration 0.5 mM
T3 construct: made in house; host or cells: E. coli Rosetta 2 (DE3), co-expressed with BirA
Procedure: as §1, §2, §3, §4

[4] = molecular target: T4, mouse wild type (Ms-WT) STING C-terminal binding domain protein (Mus musculus, UniProt Q3TBT3); test: Protein thermal shift assay, STING binding; settings: test compound final concentration 0.5 mM
T4 construct: made in house; host or cells: E. coli Rosetta 2 (DE3), co-expressed with BirA
Procedure: as §1, §2, §3, §4

[5] = molecular target: human STING (THP1-Dual cells, HAQ mutant; IRF3 pathway) (Homo sapiens, UniProt Q86WV6, G230A/H232R/R293Q/R71H); test: Reporter gene assay, human STING agonist activity in THP1-Dual cells
Procedure: Human STING agonist activity was evaluated using THP1-Dual™ cells (HAQ mutant) (InvivoGen, CA, US), in which activation of the interferon regulatory factor-3 (IRF3) pathway, which is downstream of the STING pathway, could be checked.
The assay was conducted as follows. First, each test compound diluted in PBS was dispensed at 20 μL/well of a transparent 96-well plate (Corning, NY, US). […] The cells were cultured for 24 h under conditions at 37° C. and 5% CO2, and then centrifuged to collect the supernatant. Next, 6 μL of the collected supernatant was added to a white 384-well plate, and 15 μL of QUANTI-Luc (InvivoGen) solution was added thereto. After well mixing, the luminescence was measured using a plate reader (PerkinElmer, MA, US).

[6] = system: mouse bone marrow-derived dendritic cells; test: Co-culture assay with CT26.WT or CT26.WT-hCD70 cell line and mouse bone marrow-derived dendritic cells; assay type: cell-based; settings: conditions DC, 20 h incubation, FIG. 12
Description: CT26.WT (CRL2638), a mouse colon cancer cell line purchased from American Type Culture Collection, was transduced with human CD70 gene (NP_001243) to establish CT26.WT-hCD70 cells. Specifically, a pLVSIN lentiviral vector (Takara Bio), in which the human CD70 gene was inserted, was constructed. Next, Lenti-X293T cell line (Takara Bio) was transfected with the vector using a Lentiviral High Titer Packaging Mix (Takara Bio). Then, the supernatant was collected, and the CT26.WT was infected therewith. The cells were maintained in medium supplemented with 10 μg/mL puromycin (Thermo Fisher Scientific).
Mouse bone marrow cells were collected from the femur of 5-week-old female BALB/c mice (BALB/cAnNCrlCrlj) (Charles River, Japan). The mouse bone marrow cells were cultured in the presence of […] murine GM-CSF (PEPROTECH) for 7 days to obtain mouse bone marrow-derived dendritic cells. 1.5×10^5 CT26.WT or CT26.WT-hCD70 cell line cells and 1×10^5 mouse bone marrow-derived dendritic cells were seeded per well of a 96-well plate. Each test compound was diluted in RPMI medium (Invitrogen), and 200 μL was added. […] The cells were washed with FCM buffer again and analyzed using a Fortessa (BD Biosciences). MFI of CD86 in CD45^+, CD11c^+, and I-A/I-E^+ fraction was calculated. Then, the ratio with respect to the test compound-free group was calculated. […]

[7] = system: CT26.WT-chimeraEGFR cells subcutaneously transplanted in BALB/c mouse; test: Anti-tumor test (5); assay type: in vivo; settings: 0.01 mg/kg into the tail vein once on Day 7, FIG. 24
Procedure: Then, the supernatant was collected, and the CT26.WT was infected therewith.
In addition, the vehicle group was provided in which acetate buffer was administered. The number of mice in each group was 8.

[8] = system: CT26.WT-hEGFR cells subcutaneously transplanted in BALB/c mouse; test: Anti-tumor test (2); assay type: in vivo; settings: 1.5 mg/kg into the tail vein once on Day 12, FIG. 15
Description: CT26.WT (CRL2638), a mouse colon cancer cell line purchased from American Type Culture Collection, was transduced with the human EGFR gene (NP_005219.2) to establish CT26.WT-hEGFR cells. Specifically, a pLVSIN lentiviral vector (Takara Bio), in which the human EGFR gene was inserted, was constructed. Next, Lenti-X293T cell line (Takara Bio) was transfected with the vector using a Lentiviral High Titer Packaging Mix (Takara Bio). Then, the supernatant was collected, and the CT26.WT was infected therewith. The cells were maintained in medium supplemented with 10 μg/mL puromycin (Thermo Fisher Scientific).
CT26.WT-hEGFR cells were suspended in saline. Ne×t, 3×10^6 cells were transplanted subcutaneously into the right axillary region of each BALB/c mouse (Day 0), and random grouping was conducted after 12 days. […] In addition, the vehicle group was provided in which acetate buffer was administered. The number of mice in each group was 8.

T2 sequence (Q86WV6 with tags, fused parts or gaps, change not shown): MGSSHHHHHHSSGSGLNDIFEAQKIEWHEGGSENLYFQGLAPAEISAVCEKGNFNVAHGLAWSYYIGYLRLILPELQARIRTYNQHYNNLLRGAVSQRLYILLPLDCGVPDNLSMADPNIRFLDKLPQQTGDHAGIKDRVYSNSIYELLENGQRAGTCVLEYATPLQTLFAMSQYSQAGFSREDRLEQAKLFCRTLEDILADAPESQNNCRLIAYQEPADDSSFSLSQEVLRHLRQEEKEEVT
T1 sequence (Q86WV6 with tags, fused parts or gaps G230A/H232R/R293Q): as the sequence (Q86WV6 with tags, fused parts or gaps, change not shown) above, with G131A, H133R, R194Q counted along it
T4 sequence (Q3TBT3 with tags, fused parts or gaps): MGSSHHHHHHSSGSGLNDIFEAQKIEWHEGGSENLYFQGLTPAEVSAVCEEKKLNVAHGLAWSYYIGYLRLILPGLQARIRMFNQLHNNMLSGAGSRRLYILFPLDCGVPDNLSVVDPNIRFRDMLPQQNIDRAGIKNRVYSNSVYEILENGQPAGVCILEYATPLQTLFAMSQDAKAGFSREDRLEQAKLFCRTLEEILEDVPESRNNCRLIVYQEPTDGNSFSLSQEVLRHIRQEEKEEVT
Chain of human STING (THP1-Dual cells, HAQ mutant; IRF3 pathway) (Q86WV6 whole entry R71H/G230A/H232R/R293Q): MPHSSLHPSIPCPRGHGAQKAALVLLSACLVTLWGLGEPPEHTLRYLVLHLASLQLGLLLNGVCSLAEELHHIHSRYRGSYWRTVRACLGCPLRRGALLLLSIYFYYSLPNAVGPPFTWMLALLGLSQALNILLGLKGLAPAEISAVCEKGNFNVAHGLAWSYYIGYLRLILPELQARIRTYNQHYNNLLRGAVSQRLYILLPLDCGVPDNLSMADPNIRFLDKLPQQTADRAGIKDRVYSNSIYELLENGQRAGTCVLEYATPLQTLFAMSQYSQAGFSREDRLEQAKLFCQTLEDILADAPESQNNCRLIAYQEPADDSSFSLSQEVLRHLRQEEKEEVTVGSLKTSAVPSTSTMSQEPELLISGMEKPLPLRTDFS
T3 sequence (Q86WV6 with tags, fused parts or gaps H232R): as the sequence (Q86WV6 with tags, fused parts or gaps, change not shown) above, with H133R counted along it

Row | ΔTm at 500 µM [1] [°C] | ΔTm at 500 µM [2] [°C] | ΔTm at 500 µM [3] [°C] | ΔTm at 500 µM [4] [°C] | EC50 [5] [nM] | Molecule | CD86 expression on mouse dendritic cells (ratio of MFI with respect to the compound-free group) [6] | tumor growth (tumor volume) [7] | tumor growth (tumor volume) [8]
1 | 11.3 | 3.4 | 8.4 | 12.9 | 2100 | O=c1c2ncn([C@@H]3O[C@@H]4COP(=O)(S)O[C@H]5[C@@H](O)[C@H](n6cc7c8c(ncnc86)NCCC7)O[C@@H]5COP(=O)(S)O[C@@H]3[C@@H]4O)c2ncn1CCO (single isomer, unassigned) [Compound 6b] |  |  | 
2 | 15.3 | 6.3 |  | 7.4 |  | O=C(CO)NCCn1cnc2c(ncn2[C@@H]2O[C@@H]3COP(=O)(S)O[C@H]4[C@@H](F)[C@H](n5cc6c7c(ncnc75)SCCC6)O[C@@H]4COP(=O)(S)O[C@@H]2[C@@H]3O)c1=O (single isomer, unassigned) [Compound 50b] |  |  | 
3 |  |  |  |  | 200 | O=c1c2ncn([C@@H]3O[C@@H]4COP(=O)(S)O[C@H]5[C@@H](F)[C@H](n6cc7c8c(ncnc86)NCCC7)O[C@@H]5COP(=O)(S)O[C@@H]3[C@@H]4O)c2ncn1CCO (single isomer, unassigned) [Compound 34a] | caused an increase in CD86 expression on mouse dendritic cells in all conditions | tumor growth was not inhibited | 
4 |  |  |  |  |  | anti-EGFR antibody 1: IgG1 isotype with LALA mutation, produced with reference to the Vectibix review report; light chain SEQ ID NO: 9, heavy chain SEQ ID NO: 10 |  |  | tumor growth was not inhibited
